For this assay, the system named is Sprague-Dawley rats. The assay is described as follows: Basal and stress-induced (restraint) serum corticosterone, HPA axis activity. It counts as in vivo, rat. Particulars: for serum levels of corticosterone before and after physical restraint: all experimental groups. The source says: Sixty-four G1 rats (32 control and 32 sevoflurane exposed) and 122 G2 rats, which were not exposed to sevoflurane anesthesia and were subjected to animal facility rearing only, were studied. The G1 rats were sequentially evaluated in the EPM starting on ~[…], PPI of the acoustic startle response on ~[…] and MWM starting ~on […] (FIG. 1). One half of these animals were sacrificed on ≥[…] to collect trunk blood, brain and testis and ovarian tissues for further analyses. The rest of these animals were physically restrained for 30 min on ≥[…] to measure corticosterone responses, followed by collection of tissue samples (as above) for further analyses. The G2 rats were evaluated in the EPM starting on P60 and PPI of startle on P70 (FIG. 1). One half of these animals were sacrificed on ≥[…] to collect trunk blood and brain tissue samples for further analyses, and the rest of these animals were tested for the corticosterone responses to physical restraint for 30 min on ≥[…] before collecting the trunk blood and brain tissue samples. Blood samples (~300 μl) were collected using the “tail clip” method at rest and 10, 60, and 120 min after the restraint. Physical restraint was administered using rodent holders (Kent scientific Corporation, Torrington, CT). Serum corticosterone was measured using commercial ELISA kits (Cayman Chemical Company, Ann Arbor, MI, USA) according to the manufacturer's instructions.

The structures appear in SMILES notation.

`FCOC(C(F)(F)F)C(F)(F)F` [sevoflurane, 1,1,1,3,3,3-hexafluoro-2-(fluoromethoxy)propane]: for the setting “G1 female rats, before and after restraint, vs control”, the serum corticosterone levels entry is “no difference”. Also, the serum corticosterone entry (G1 male rats, 10 min after restraint, vs control) was “higher levels”; the serum corticosterone entry (G1 male rats, 60 min after restraint, vs control) is reported as “higher levels”; the serum corticosterone entry (G1 male rats, 120 min post restraint, vs control) was “not different”; the serum corticosterone entry (G1 male rats, before the restraint, vs control) was “not different”. Also, the “total corticosterone responses (AUCg)” value (G1 male rats, 30 min restraint on ≥P160, vs control) is reported as “significantly higher”. In addition, the “serum levels of corticosterone before and after physical restraint” value is recorded as “no differences” (G2 female rats) and “no differences” (G2 male rats).
